Measurements: patent US11465978B2, “Anthranilic amides and the use thereof” (THE ADMINISTRATORS OF THE TULANE EDUCATIONAL FUND, priority 2013, dated 2022)
Where a name gives a salt, the structure may show the parent alone.

How the values were obtained:
pERK5 = experiment: Western blot, inhibition of EGF-mediated formation of pERK5 in MDA-MB-231 cells; format: cell-based; details: for pERK-5 decrease (%) / pERK-5 relative activity (%): Example 3 table, MDA-MB-231, EGF stimulation; for pERK-5 decrease (%): DMSO = 0; for inhibition at 10 µM: Homo sapiens, MDA-MB-231, Table 1, MDA-MB-231, compounds 10 μM 30 min, then EGF 50 ng/mL 15 min, read-out: cellular pERK5 decrease (%); for pERK-5 relative activity (%): DMSO = 100; for cellular pERK5 activation (printed in the decrease column): Table 1, cell marked 'activation'
Experimental: (§1) FIG. 9 is a set of bar graphs showing a Western blot analysis of potential MEK5 inhibitors. The MDA-MB-231 triple negative breast cancer cell line was pretreated with compounds (10 μM) for 30 minutes followed by stimulation with epidermal growth factor (EGF, 50 ng/mL) for 15 minutes. Vehicle-treated cells were pretreated with DMSO for 30 minutes prior to EGF stimulation for 15 minutes. Protein visualization and quantification analysis were performed using LI-COR Odyssey Imager. * P<0.05 vs. Vehicle, one-way ANOVA followed by Tukey-Kramer test (n=3).
(§2) A number of compounds were tested for their potential as MEK5 inhibitors. The MDA-MB-231 triple negative breast cancer cell line was pretreated with 10 μM of compounds 24, 9b, 9a, 9c, 9e, 9f, 9d, 9h, 23, 7, and 15 for 30 minutes followed by stimulation with epidermal growth factor (EGF, 50 ng/mL) for 15 minutes. Vehicle-treated cells and known MEK1/2 inhibitor cells were pretreated with DMSO and U0126 respectively for 30 minutes prior to EGF stimulation for 15 minutes. Protein visualization and quantification analysis was performed using LI-COR Odyssey Imager. The results of the Western blot analysis are shown in FIG. 9. * P<0.05 vs. Vehicle, one-way ANOVA followed by Tukey-Kramer test (n=3).
(§3) MDA-MB-231 cells were grown on 10 cm cell culture plates [Sarstedt] in Dulbecco's Modified Eagle's Medium (DMEM; Gibco) with Ham's F12 Nutrient Mixture (1:1) (Invitrogen), 10% heat-inactivated FBS [Atlanta Biological and 0.5% penicillin/streptomycin [Gibco]. Cells were maintained at 37° C. with 5% CO2. Plating of the cells was done 36 hours before treatment in 35 mm culture plates [Sarstedt] and allowed to reach confluence. To test MEK-5 inhibitors, the cells were treated with epidermal growth factor (EGF; Sigma-Aldrich) 30 min after treatment with the compounds. 15 min after the addition of EGF, the cells were washed with 1×PBS [Sigma-Aldrich] and then lysed in 1% Triton X-100 buffer containing 20 mM Tris (pH 6.8), 137 mM NaCl, 25 mM beta glycerophosphate, 2 mM NaPPi, 2 mM EDTA, 1 mM Na3VO4, 10% glycerol, 5 μg/mL leupeptin, 5 μg/mL aprotinin, 2 mM benzamidine, 0.5 mM DTT, and 1 mM PMSF. The lysates were then centrifuged at 10,000 rpm for 10 min at 4° C.
(§4) Total protein content was assessed by Bradford Bio-Rad protein assay (Cat. No. 500-0006, Bio-Rad, Hercules, Calif.) and 30 μg of protein was loaded on a 8% SDS-PAGE gel for phosphorylated and total ERK1/2 and ERK5 proteins. After running the samples, gels were transferred to a nitrocellulose membrane (Cat. No. 926-31092, Licor Biosciences, Lincoln, Nebr.). After transfer, membranes were washed for 5 min with 1×PBS and blocked for 1 h in a Casein Blocking Buffer (Cat. No. 927-40200, Licor Biosciences) at room temperature. Membranes were then incubated overnight at 4° C. in primary antibody in CBB with 0.2% Tween-20. Antibodies included rabbit anti-phospho-ERK1/2 (Dilution—1:1000, Cat. No. 9101, Cell Signaling, Beverly, Mass.), mouse anti-total ERK1/2 (Dilution—1:1000, Cat. No. 9107, Cell Signaling), and rabbit anti-total ERK5 (Dilution—1:1,000, Cat. No. 3372, Cell Signaling). Mouse anti-α-Tubulin (Dilution—1:10,000, Cat. No. T5168, Sigma-Aldrich) was used as a loading control. After incubation with primary antibody, blots were washed in 1×PBS solution with 0.2% Tween-20 (1×PBS-T) and incubated with goat anti-rabbit (Dilution—1:10,000, Cat. No. 926-68021, LICOR Biosciences) and goat anti-mouse (Dilution—1:10,000, Cat. No. 926-32210, LICOR Biosciences) secondary antibodies for 1 h at room temperature. After washing the membranes with 1×PBS-T, the protein bands were visualized on an Odyssey Infrared Imager and quantified with Odyssey software (LICOR Biosciences).

pERK1/2 = experiment: Western blot, inhibition of EGF-mediated formation of pERK1/2 in MDA-MB-231 cells; format: cell-based; details: for pERK-½ decrease (%) / pERK-½ relative activity (%): Example 3 table, MDA-MB-231, EGF stimulation; for pERK-½ decrease (%): DMSO = 0; for inhibition at 10 µM: Homo sapiens, MDA-MB-231, Table 1, MDA-MB-231, compounds 10 μM 30 min, then EGF 50 ng/mL 15 min, read-out: cellular pERK1/2 decrease (%); for pERK-½ relative activity (%): DMSO = 100; for cellular pERK1/2 activation (printed in the decrease column): Table 1, cell marked 'activation'
Experimental: as §1, §2, §3, §4

Row | Compound | pERK-5 decrease (%) (pERK5) | inhibition at 10 µM (pERK5) [%] | pERK-½ decrease (%) (pERK1/2) | inhibition at 10 µM (pERK1/2) [%] | pERK-5 relative activity (%) (pERK5) | cellular pERK5 activation (printed in the decrease column) (pERK5) | pERK-½ relative activity (%) (pERK1/2) | cellular pERK1/2 activation (printed in the decrease column) (pERK1/2)
1 | O=C(O)c1ccc(F)c(F)c1Nc1ccc(I)cc1F [Compound 7, 3,4-difluoro-2-((2-fluoro-4-iodophenyl)amino)benzoic acid] | 20.1 | 20.1 | 98.5 | 98.5 | – | – | – | –
2 | CN(C)C(=O)c1ccc(F)c(F)c1Nc1ccc(I)cc1F [Compound 9a, 3,4-difluoro-2-((2-fluoro-4-iodophenyl)amino)-N,N-dimethylbenzamide] | 0.2 | 0.2 | 87.3 | 87.3 | – | – | – | –
3 | CCN(CC)C(=O)c1ccc(F)c(F)c1Nc1ccc(I)cc1F [Compound 9b, N,N-diethyl-3,4-difluoro-2-((2-fluoro-4-iodophenyl)amino)benzamide] | – | – | 5.5 | 5.5 | 7.4 | activation (−7.4) % | – | –
4 | CNC(=O)c1ccc(F)c(F)c1Nc1ccc(I)cc1F [Compound 9c, 3,4-difluoro-2-((2-fluoro-4-iodophenyl)amino)-N-methylbenzamide] | 20.4 | 20.4 | 99.6 | 99.6 | – | – | – | –
5 | CCNC(=O)c1ccc(F)c(F)c1Nc1ccc(I)cc1F [Compound 9d, N-ethyl-3,4-difluoro-2-((2-fluoro-4-iodophenyl)amino)benzamide] | 8.5 | 8.5 | 98.6 | 98.6 | – | – | – | –
6 | COC(=O)c1ccc(F)c(F)c1Nc1ccc(I)cc1F [Compound 9e, Methyl 3,4-difluoro-2-((2-fluoro-4-iodophenyl)amino)benzoate] | 13.0 | 13 | 98.9 | 98.9 | – | – | – | –
7 | O=C(c1ccc(F)c(F)c1Nc1ccc(I)cc1F)N1CCNCC1 [Compound 9f, (3,4-difluoro-2-((2-fluoro-4-iodophenyl)amino)phenyl)(piperazin-1-yl)methanone hydrochloride] | – | – | 99.0 | 99 | 6.2 | activation (+4.4) % | – | –
8 | CC(C)(C)OC(=O)N1CCN(C(=O)c2ccc(F)c(F)c2Nc2ccc(I)cc2F)CC1 [Compound 9g, Tert-butyl 4-(3,4-difluoro-2-((2-fluoro-4-iodophenyl)amino)benzoyl)piperazine-1-carboxylate] | 8.4 | 8.4 | 70.9 | 70.9 | – | – | – | –
9 | CN(C)CCN(C)C(=O)c1ccc(F)c(F)c1Nc1ccc(I)cc1F [Compound 9h, N-(2-(dimethylamino)ethyl)-3,4-difluoro-2-((2-fluoro-4-iodophenyl)amino)-N-methylbenzamide hydrochloride] | 9.4 | 9 | 27.9 | 28.2 | – | – | – | –
10 | O=C(O)c1ccc(F)c(F)c1Nc1ccccc1 [Compound 12, 3,4-difluoro-2-(phenylamino)benzoic acid] | 10.4 | – | 7.1 | – | – | – | – | –
11 | O=C(O)c1ccc(F)c(F)c1Nc1ccccc1F [Compound 13, 3,4-difluoro-2-((2-fluorophenyl)amino)benzoic acid] | 11.1 | – | – | – | – | – | 7.1 | –
12 | CN1CCN(C(=O)c2ccc(F)c(F)c2Nc2ccccc2)CC1 [Compound 15] | 82.4 | 82.4 | – | – | – | – | 8.5 | activation (+8.5) %
13 | CN1CCN(C(=O)c2ccccc2Nc2ccccc2)CC1 [Compound 23, (4-methylpiperazin-1-yl)(2-(phenylamino)phenyl)methanone] | 71 | – | 29.3 | 29.6 | – | – | – | +5.5%
